These results are taken from PubChem BioAssay AID179 (DTP/NCI, 2004).

pEC50, pIC50: −log10 of the molar value. Several values for one entry are separate records, joined by “and”; a condition that tells them apart may be missing. Equal values may be shown once. Activity calls are given as the source filed them.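 Rule for the calls: active = compounds giving half or more protection of infected cells from virus-caused growth loss, again on retest; inactive = the rest.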 Where a SMILES comes first, the peptide text is derived from it. [ ]: non-standard residue; d: D form. The star is where a group is joined. Phe(4-NO2) = N[CH](Cc1ccc([N+](=O)[O-])cc1)C(=O)O; Boc = CC(C)(C)OC(=O)*; Bn = c1ccc(C*)cc1 A value given as a limit tells only on which side of the number the result lay.

In this assay the test system is CEM cells HIV-1 protection, formazan growth assay. Kind of assay: NCI AIDS Antiviral Assay. The conditions noted are these: for pIC50: measured here: growth of uninfected CEM cells. In short, it runs like this: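 Soluble formazan readout of cell growth; CEM cells ± HIV-1; 5 drug concs. ≥50% protection → retest; ≥50% again = moderately active; reproducible 100% = confirmed active.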

Take `COC(=O)[C@@H]1CCCN1C(=O)C1Cc2c([nH]c3ccccc23)[C@@H](C=C(C)C)N1C(=O)OC(C)(C)C(Cl)(Cl)Cl` (some centres not stated): the result was inactive.
Consider `Cc1cn(CC2(CO)CCC2)c(=O)[nH]c1=O`, for which the pEC50 is under 3.70 and the negative logarithm of the IC50 (pIC50) was under 3.70.
Regarding `COc1ccc(N=C2C(=Nc3ccc(OC)cc3)N(S(=O)(=O)c3ccccc3)C(=S)N2c2ccc(OC)cc2)cc1`, the pEC50 is under 3.70 and the negative logarithm of the IC50 (pIC50) was under 3.70.
For the molecule `CC1=NCCc2c1[nH]c1cc(O)ccc21`, the pEC50 is under 3.40 and the pIC50 is under 4.00.
For the molecule `NCCCNCCSSCCCCS(=O)O`, the outcome was inactive.
As to `O=C1c2cccc3cc([N+](=O)[O-])cc(c23)C(=O)N1C(Cc1ccccc1)c1ccccc1` (configuration not stated), the pEC50 is under 3.70 and the pIC50 is 3.98.
`COC(=O)c1ccc(CN2CCc3c([nH]c4ccccc34)C2CO)o1` (configuration not stated): the pEC50 is under 3.83 and the negative logarithm of the IC50 (pIC50) is 4.28.
The corresponding values for `OCC(O)C(O)C(O)c1nc2ccccc2s1` (configuration not stated) are under 3.01 and 3.92.
`Cc1ccc2nc(NC(=S)SSC(=S)Nc3nc4ccc(C)cc4s3)sc2c1`: the pEC50 is under 3.70 and the negative logarithm of the IC50 (pIC50) is 6.27.
`CCC[CH2][Ge]([CH2]CCC)([CH2]CCC)[O]C(=O)CCl`: the pEC50 was under 4.49 and the pIC50 is under 4.49.
In the case of `CC12CCC(OC3OC(CO)C(OC4OC(CO)C(O)C(O)C4O)C(O)C3O)CC1CCC1C2CCC2(C)C(C3=CC(=O)OC3)CCC12O` (configuration not stated), the pEC50 is under 4.70 and the pIC50 is 6.51.
In the case of `O=[N+]([O-])c1cc2ccc(N(CCO)CCO)nc2nc1N(CCO)CCO`, the pEC50 was under 3.70 and the pIC50 was under 3.70.
With `COc1ccc(CC(=O)c2ccc(O)cc2O)cc1`, the pEC50 was under 3.70 and the negative-log IC50 (pIC50) is 4.09.
For the molecule `O=C1Cc2c([nH]c3ccccc23)-c2cc(Br)ccc2N1`, the pEC50 is under 4.38 and the pIC50 was under 4.38.
`CC1=C(C#N)C(=N)OC1(C)C1CC(=O)C=CC1=O` (configuration not stated): the pEC50 was under 3.70 and the pIC50 was 4.98.
Consider `CCc1c(OC)oc(CCCCCCCCCC(C)C(C)=O)c(C)c1=O` (configuration not stated), for which the pEC50 is under 4.60 and the negative logarithm of the IC50 (pIC50) is 7.43.
The like results for `Cc1cc(Cc2c(F)c(F)c(C(c3cc(C)no3)c3c(F)c(F)c(F)c(F)c3F)c(F)c2F)on1` (configuration not stated) were, in that order, under 3.70 and 5.47.
As to `CCOC(=O)C(C(=O)c1ccccc1-c1ccccc1C(=O)O)=P(c1ccccc1)(c1ccccc1)c1ccccc1`, the pEC50 was under 3.64 and the negative-log IC50 (pIC50) is 4.36.
Consider `O=C1CCC(=O)Nc2ccccc2-c2ccccc2N1`, for which the outcome was inactive.
In the case of `CC(=O)/C(=C\c1ccco1)C(=O)Nc1ccccc1`, the pEC50 was under 4.13 and the negative-log IC50 (pIC50) is under 4.13.
On to `Cc1ccnc(NC(=S)Nc2cccc(Cl)c2)c1`, for which the pEC50 was 4.24 and the pIC50 is under 3.70.
For `C[n+]1cn(C2=C([O-])c3ccccc3C(=O)/C2=N\S(=O)(=O)c2ccccc2)c2ccccc21`, the pEC50 is under 3.82 and the pIC50 is 3.90.
Take `COC(=O)CCCC=C(c1cc(Cl)c(OC)c(C2=NC(C)(C)CO2)c1)c1cc(Cl)c(OC)c(C2=NC(C)(C)CO2)c1`: the result was inactive.
Turning to `O/N=C1/C(=C/c2ccc(F)cc2)CCCC1C(NO)c1ccc(F)cc1` (configuration not stated), the pEC50 is under 5.54 and the negative logarithm of the IC50 (pIC50) was under 5.54.
On to `O=C(NCCCNCCCNC(=O)c1cc(-c2ccccc2)nc2ccccc12)c1cc(-c2ccccc2)nc2ccccc12`, for which the pEC50 was under 3.70 and the pIC50 is 5.55.
`NC(=O)C(NN=C1c2ccccc2-c2ccccc21)(c1ccccc1)c1ccccc1`: the pEC50 was under 3.70 and the pIC50 is 4.55.
For the molecule `Cc1nc2c(s/c(=N\N)n2-c2ccccc2)c(=O)[nH]1`, the pEC50 is under 4.44 and the pIC50 is under 4.44.
Consider `COc1ccc(C2=C(N)c3ccccc3C2=O)cc1`, for which the pEC50 is under 3.70 and the pIC50 was under 3.70.
With `Cn1c(NS(=O)(=O)c2ccccc2)nc2ccccc21`, the pEC50 was under 3.70 and the pIC50 is under 3.70.
In the case of `CCOC(=O)/C=C/[C@H](O)[C@@H](O)/C=C/C(=O)OCC`, the pEC50 is under 3.70 and the pIC50 is 4.77.
The corresponding values for `O=C1OC(c2cccc3ccc(Br)cc23)c2ccccc21` (configuration not stated) are 4.56 and 4.28.
For `O=C1/C(=C/c2cccc(F)c2)CCCc2ccccc21`, the pEC50 is under 3.70 and the negative-log IC50 (pIC50) was 4.71.
Take `CC1=NN(c2ccccc2)C(=O)/C1=C1/C(=O)N(c2ccccc2)N=C1C`: the pEC50 was under 3.70 and the negative-log IC50 (pIC50) is under 3.70.
`COc1ccc(/C=C2\C(=O)N(C(=O)Cc3ccccc3)N=C2C)cc1OC`: the pEC50 was under 4.29 and the pIC50 was under 4.29.
For `O=Nc1ccc(O)cc1`, the pEC50 was under 4.70 and the negative logarithm of the IC50 (pIC50) is 5.41.
Take `CC1(C)OC(=O)[C@@](C)([C@H](O)c2ccccc2)O1`: the outcome was inactive.
With `COC(=O)C1CSC(c2csc(CCN)n2)=N1` (configuration not stated), the result was inactive.
With `COC(=O)c1cc(C(=CCC[C@H]2CC[C@@]3(C)C(CC[C@@H]4C3CC[C@@]3(C)C4CC[C@@H]3[C@H](C)CCCC(C)C)C2)c2cc(Cl)c(OC)c(C(=O)OC)c2)cc(Cl)c1OC` (some centres not stated), the pEC50 is under 4.80 and the negative-log IC50 (pIC50) is under 4.80.
With `COc1ccc(/C=C2\N=C(N/N=C\C(O)C(O)C(O)C(O)CO)NC2=O)cc1` (configuration not stated), the pEC50 is under 3.70 and the negative-log IC50 (pIC50) was 3.97.
`COC(=O)CCC(NC(=O)OC(C)(C)C)C(=O)NC(Cc1ccc([N+](=O)[O-])cc1)C(=O)NC(CCC(=O)OC)C(=O)OC` (configuration not stated) (Boc-Glu(OMe)-[Phe(4-NO2)]-Glu(OMe)-OMe; configuration not given here): the pEC50 was under 4.00 and the negative logarithm of the IC50 (pIC50) was 4.32.
The corresponding values for `CCc1c(O)n(Cc2ccccc2)c(=S)n(Cc2nc3ccccc3[nH]2)c1=O` are under 3.70 and under 3.70.
On to `N=C(N)SCCc1cn2ccccc2n1`, for which the pEC50 is under 3.07 and the negative-log IC50 (pIC50) was 4.37.
With `Cn1c2ccccc2c2nnc(N/N=C/c3cccnc3)nc21`, the pEC50 was under 3.70 and the negative logarithm of the IC50 (pIC50) was under 3.70.
For the molecule `Cc1cc(NC(=O)c2ccc(NC(=O)c3ccc(N)cc3)cc2)ccc1N=Nc1ccc2c(O)c(N=Nc3ccc(S(=O)(=O)O)cc3C)c(S(=O)(=O)O)cc2c1`, the pEC50 is 5.21 and the pIC50 was under 4.00.
As for `O=c1c2cc(Br)ccc2[nH]c(=S)n1-c1ccc(Br)cc1`, the pEC50 was under 4.34 and the pIC50 is under 4.34.
Take `OC(Cc1cnnc2ccccc12)C(Cl)(Cl)Cl` (configuration not stated): the pEC50 was under 3.70 and the pIC50 is 4.15.
For the molecule `O=C1c2ccccc2C(=O)C1(Cl)C1(Cl)C(=O)c2ccccc2C1=O`, the outcome was inactive.
Turning to `Sc1nnc(-c2ccccc2Nc2ccccc2-c2nnc(S)n2-c2ccccc2)n1-c1ccccc1`, the pEC50 was under 4.06 and the negative-log IC50 (pIC50) is 4.60.
For the molecule `Cn1nc2c(c1N)Cc1c(nn(C)c1N)-c1ccccc1-2`, the pEC50 is under 3.70 and the pIC50 was 3.72.
Take `NC1=C(c2nc(-c3ccccc3)cs2)C(c2ccco2)c2c(c3ccccc3oc2=O)O1` (configuration not stated): the pEC50 was under 3.70 and the negative logarithm of the IC50 (pIC50) was 4.03.
The corresponding values for `CCOC(=O)c1c(-c2ccc(OC)cc2)ccn1C` are under 3.70 and 4.54.
On to `O=C1NC2C3CC(OCc4ccccc4)(OCc4ccccc4)C2OC3O1` (configuration not stated), for which the pEC50 was under 4.01 and the negative-log IC50 (pIC50) is under 4.01.
As for `COc1ccc(/C=c2/s/c(=C(\C#N)c3nc4ccccc4[nH]3)n(-c3ccccc3)c2=O)cc1`, the pEC50 is under 3.70 and the pIC50 was 4.43.
`COC(=O)/C=C\COCC1C2CCC(=O)C21` (configuration not stated): the pEC50 is under 4.30 and the pIC50 was 4.55.
The like results for `N#Cc1nc(-c2cccs2)oc1N` were, in that order, under 3.70 and under 3.70.
For the molecule `Nc1ccc2cc3ccc(N)cc3nc2c1`, the pEC50 was under 3.70; the pIC50 was 5.95 and 6.16.
Turning to `O=C(c1nc2ccccc2[nH]c1=O)C(O)c1ccco1` (configuration not stated), the pEC50 was under 3.10 and the pIC50 was 3.42.
In the case of `COc1ccc2nc(CC(C)C)c3c(c2c1)-c1ccccc1C3=O`, the pEC50 is under 4.95 and the pIC50 was under 4.95.
Take `CCN(CC)CC1CCCCN1CC(=O)N1c2ccccc2C(=O)Nc2cccnc21` (configuration not stated): the pEC50 was under 3.70 and the pIC50 is 4.49.
Regarding `O=c1cc[nH]c(=O)n1C1CCC(CO)O1` (configuration not stated), the pEC50 was under 3.70 and the negative-log IC50 (pIC50) was under 3.70.
Turning to `O=C(O)c1cc(Cl)cc(NC(=O)C(Cl)Cl)c1Cl`, the pEC50 was under 3.10 and the pIC50 is 3.21.
Consider `COC(=O)c1c(-c2cc(OC)c(OC)c(OC)c2)oc2ccccc2c1=O`, for which the pEC50 is under 4.01 and the negative-log IC50 (pIC50) was 5.84.
As to `O=C(Sc1ccccc1)C1OC12CCCCC2` (configuration not stated), the pEC50 was under 3.70 and the pIC50 is 4.88.
With `Cc1cc(C2(c3ccc(O)c(C)c3)OS(=O)(=O)c3ccccc32)ccc1O`, the result was inactive.
For `Nc1ncnc2c1ncn2C1CCCCC1O` (configuration not stated), the pEC50 is under 4.23 and the pIC50 is under 4.23.
Consider `COC(=O)C(CC(C)C)NC(=O)C(C)NC(=O)C(Cc1ccc(OCc2ccccc2)cc1)NC(=O)C(COCc1ccccc1)NC(=O)OC(C)(C)C` (configuration not stated) (Boc-S(Bn)Y(Bn)AL-OMe; configuration not given here), for which the pEC50 was under 3.70 and the pIC50 is 4.08.
With `COc1c2occc2c(OC)c2c(=O)c(S(=O)(=O)NC(=O)Nc3ccc(Cl)cc3)coc12`, the pEC50 was under 3.70 and the pIC50 was 4.01.
The corresponding values for `CCOC(=O)c1nnsc1NC(=O)Nc1ccc(Cc2ccc(NC(=O)Nc3snnc3C(=O)OCC)cc2)cc1` are under 3.70 and under 3.70.
Turning to `O=C(Nc1ccc(C2=NCCN2)cc1)c1cccc(NC(=S)Nc2ccc(C3=NCCN3)cc2)c1`, the pEC50 was 4.48 and the negative logarithm of the IC50 (pIC50) was 3.95.
Consider `CCOC(=O)C(C/C(C)=C/c1ccccc1)C(=O)OCC`, for which the pEC50 was under 3.70 and the pIC50 is 3.74.

For orientation: pEC50 means −log10 of the EC50, conventionally taken in molar units. The pIC50 is the IC50 on a negative log10 scale, so that one unit is a factor of ten. A high value points to a small IC50.
